Assay results reported in patent publication US20090202572A1, “COMPOSITIONS AND METHODS FOR MODULATING BONE MASS” (priority 2004, published 2009).
“Also recorded” adds a separate entry of the source. Read-outs that look alike come from different tables or passages of the source.

Assays:
WT osteoblasts = assay: cAMP production in osteoblasts; type: cell-based, mouse
Description: β2AR is the only post-synaptic β-AR whose expression can be detected in osteoblasts. […] Thus, we used Adrb2−/− mice to study how sympathetic signaling affects bone remodeling in adult animals.

mature osteoclasts = assay: cAMP production in mature osteoclasts (EIA); type: cell-based, mouse; conditions: ISO 10 μM, calcitonin 100 pg/ml
Protocol: (§1) (a) In vitro osteoclastogenesis is not affected by Adrb2 deficiency. BBMs were differentiated with the indicated amounts of RANK-L and MCS-F and the number of TRAP+ osteoclasts was counted after 5 days. (b) In vitro osteoclast differentiation is not affected by Isoproterenol (ISO) treatment. BBMs were differentiated in presence of MCS-F and RANK-L with or without 10 uM ISO and the number of TRAP+ osteoclasts was counted after 5 days. […] BBMs were differentiated in presence of MCS-F and RANK-L and were treated by ISO (10 μM), dobutamine (Dobu, 10 μM) or calcitonin (100 pg/ml). Intracellular cAMP production was measured by EIA. (d) ISO stimulated osteoclast differentiation via stimulation of b2AR in osteoblasts. Osteoblasts and BMMs were co-cultured with 1,25(OH)2-vitamin D (10^-8 M) with or without ISO (10 uM) and the number of TRAP+ osteoclasts was counted after 4 days. (e) ISO induced Rank-l expression in osteoblasts, via b2AR. (f) ISO induced IL6 expression in osteoblasts, via b2AR. WT and Adrb2 primary osteoblasts were treated for the indicated time with ISO (10 μM) and gene expression was quantified by real-time RT-PCR. (g) Schematic diagram of the structure of Rank-1 and IL6 promoters. Boxes represent CREB-like consensus binding sites.
To test whether sympathetic signaling could affect osteoclast function, we treated TRAP-positive multinucleated osteoclasts with isoproterenol.

[1] = system: bone marrow macrophages (BMMs); assay: In vitro osteoclast differentiation of BMMs with RANK-L and M-CSF (TRAP+ count); type: cell-based, mouse; conditions: 10 uM ISO, counted after 5 days
Protocol: as §1, with “BBMs” for “(a) In vitro osteoclastogenesis is not affected by Adrb2 deficiency. BBMs”, “(b) In vitro osteoclast differentiation is not affected by Isoproterenol (ISO) treatment.” left out, “(d) ISO stimulated osteoclast differentiation via stimulation of b2AR in osteoblasts.” left out, “(e) ISO induced Rank-l expression in osteoblasts, via b2AR. (f) ISO induced IL6 expression in osteoblasts, via b2AR.” left out

WT mature osteoclasts = assay: Osteoclast function: resorption pits on dentine slices; type: cell-based, mouse
Description: WT or Adrb2 BBMs were differentiated for 2 days with MCS-F and RANK-L, trypsinized and platted on dentine slices for 2 days. Resorption pits were stained with hematoxylin and resorption pit area was quantified (data not shown). To test whether sympathetic signaling could affect osteoclast function, we treated TRAP-positive multinucleated osteoclasts with isoproterenol.

osteoblasts and BMMs = assay: Co-culture of osteoblasts and BMMs with 1,25-(OH)2 vitamin D3 (TRAP+ osteoclast count); type: cell-based, mouse; conditions: for number of TRAP-positive multinucleated osteoclasts in co-culture: WT osteoblasts and WT BMMs, ISO 10 uM, 4 days
Protocol: as §1, with “BBMs” for “(a) In vitro osteoclastogenesis is not affected by Adrb2 deficiency. BBMs”, “(b) In vitro osteoclast differentiation is not affected by Isoproterenol (ISO) treatment.” left out, “(d) ISO stimulated osteoclast differentiation via stimulation of b2AR in osteoblasts.” left out, “(e) ISO induced Rank-l expression in osteoblasts, via b2AR. (f) ISO induced IL6 expression in osteoblasts, via b2AR.” left out
To that end we performed co-culture of BMMs and osteoblasts prepared from mouse calvariae. In this assay treatment of osteoblasts with 1,25-(OH)2 vitamin D3 leads to the differentiation of BMMs into TRAP-positive multinucleated osteoclasts.

primary osteoblasts = assay: Gene expression in primary osteoblasts by real-time RT-PCR; type: cell-based, mouse
Protocol: as §1, with “BBMs” for “(a) In vitro osteoclastogenesis is not affected by Adrb2 deficiency. BBMs”, “(b) In vitro osteoclast differentiation is not affected by Isoproterenol (ISO) treatment.” left out, “(d) ISO stimulated osteoclast differentiation via stimulation of b2AR in osteoblasts.” left out, “(e) ISO induced Rank-l expression in osteoblasts, via b2AR. (f) ISO induced IL6 expression in osteoblasts, via b2AR.” left out
To test this hypothesis we analyzed the expression in osteoblasts of genes encoding known regulators of osteoclast differentiation following treatment with isoproterenol.

WT mice [2] = assay: Gene expression in bones of WT mice treated for 3 weeks; type: in vivo, mouse; conditions: 3 weeks treatment
Description: To determine the biological relevance of these findings we performed two experiments. First, we treated WT mice with isoproterenol for 3 weeks and analyzed bone resorption parameters and bone expression of Rank-l and IL6 at the end of this treatment period. […] Second, to determine the role that this physiological regulation may have in pathological conditions such as bone loss developing after menopause, we ovariectomized WT and Adrb2−l− mice at one month of age and analyzed them 3 months later. […] The increase in bone formation that persisted together with the absence of any increase in bone resorption explained why Adrb2−/− mice maintained a higher bone mass than WT mice.

WT mice [3] = assay: Bone remodeling parameters in treated WT mice; type: in vivo, mouse
Description: (a) von Kossa staining of vertebral sections. Six month old Adrb2−/− and Adrb2+/− mice display an increase in bone volume over tissue volume (BV/TV) compared to wt littermates. (b) Bone formation parameters: bone formation rate (BFR), osteoblast surface over bone surface (ObS/BS) and osteoblast number over bone perimeter (ObNb/BPm) are increased in Adrb2−/− and Adrb2+/− mice. (c) Bone resorption parameters: osteoclast surface over bone surface (OcS/BS), osteoclast number over bone perimeter (OcNb/BPm) and urinary elimination of deoxypiridinoline (dpd) are decreased in Adrb2−/− and Adrb2+/− mice.
First, we analyzed mice lacking only one copy of Adrb2 and compared them to WT mice treated with propranolol, a β-adrenergic receptor antagonist whose administration enhances bone formation in mice. Expression of Adrb2 was first assayed in WT, Adrb2−/− and Adrb2+/− osteoblasts. […] This was due to both an increase in bone formation and a decrease in bone resorption (FIGS. 1b and 1c). To our knowledge, this high bone mass is the only phenotypic consequence reported so far in the case of haploinsufficiency at the Adrb2 locus.

WT mice [4] = conditions: stated as known property; cited from earlier work

CC(CCc1ccc(O)cc1)NCCc1ccc(O)c(O)c1 (stereo not drawn) [dobutamol]
cAMP production in osteoblasts (WT osteoblasts): did not and not

CC(C)NCC(O)c1ccc(O)c(O)c1 (stereo not drawn) [isoproterenol]
cAMP production in osteoblasts (WT osteoblasts): enhances
cAMP production in osteoblasts (WT osteoblasts; listed as Isoproterenol): stimulate
intracellular cAMP production in osteoclasts (mature osteoclasts): did not induce any significant
intracellular cAMP production in osteoclasts (mature osteoclasts; listed as ISO): does not induce
number of TRAP-positive multinucleated osteoclasts [1]: did not affect
number of TRAP-positive multinucleated osteoclasts ([1]; listed as Isoproterenol): not affected
osteoclast function (pit formation / resorption pit area on dentine slices) (WT mature osteoclasts): did not affect
osteoclast function (pit formation / resorption pit area on dentine slices) (WT mature osteoclasts; listed as ISO): normal
osteoclast differentiation in co-culture (osteoblasts and BMMs; Adrb2−/− osteoblasts with WT BMMs): could not enhance
number of TRAP-positive multinucleated osteoclasts in co-culture (osteoblasts and BMMs): significantly increased
number of TRAP-positive multinucleated osteoclasts in co-culture (osteoblasts and BMMs; listed as ISO): stimulated
osteoclast differentiation in co-culture (osteoblasts and BMMs; WT osteoblasts with Adrb2−/− BMMs): increased
induction of Rank-l expression (primary osteoblasts; Adrb2−/− osteoblasts): not detected
IL6 expression in osteoblasts (primary osteoblasts; ISO 10 μM): increased
IL6 expression in osteoblasts (primary osteoblasts; ISO 10 μM, listed as ISO): induced
Rank-l expression in osteoblasts (in words) (primary osteoblasts; WT osteoblasts, ISO 10 μM): induced
increase of Rank-l expression (primary osteoblasts; WT osteoblasts, ISO 10 μM): ~20 fold
expression of IL2 (primary osteoblasts; osteoblasts, data not shown): did not affect
expression of ILI α (primary osteoblasts; osteoblasts, data not shown): did not affect
expression of M-CSF (primary osteoblasts; osteoblasts, data not shown): did not affect
expression of osteoprotegerin (Opg) (primary osteoblasts; osteoblasts, data not shown): did not affect
IL6 expression in bones (WT mice [2]): increased
OPG expression in bones (WT mice [2]): unaffected
Rank-l expression in bones (WT mice [2]): increased

CC(C)NCC(O)COc1cccc2ccccc12 (stereo not drawn) [propranolol]
bone resorption parameters (OcS/BS, OcNb/BPm, urinary dpd) (WT mice [3]): do not display a significant decrease; also recorded: did not affect
bone formation (WT mice [4]): enhances

CC(C)(C)NCC(O)c1ccc(O)c(CO)c1 (stereo not drawn) [salbutamol]
cAMP production in osteoblasts (WT osteoblasts): stimulated

calcitonin
intracellular cAMP production in osteoclasts (mature osteoclasts): robust stimulation

B1: Parathyroid hormone (peptide, UniProt P01270 32-115, looked up)
Parathyroid hormone: SVSEIQLMHNLGKHLNSMERVEWLRKKLQDVHNFVALGAPLAPRDAGSQRPRKKEDNVLVESHEKSLGEADKADVNVLTKAKSQ
modifications: Parathyroid hormone
notes: Parathyroid hormone (PTH)
cAMP production in osteoblasts (WT osteoblasts): stimulate
